target: T1, Human STING (Homo sapiens, UniProt Q86WV6, G230A/H232R/R293Q/R71H); test: Activation of human STING signaling in permeabilized THP1 cells, IRF3 induction; type: cell-based; settings: THP1-Dual cells permeabilized with digitonin buffer 30 minutes on ice, then 24 h in RPMI media
T1 construct: host or cells: THP1-Dual cells, digitonin-permeabilized
Method: (§1) To evaluate IRF3 reporter levels, cell culture supernatant (20 μl) from each incubated sample was added to QUANTI-Luc™ assay solution (Invivogen, 50 μl), and the luminescence was measured with a SpectraMax M3 spectrophotometer (Molecular Devices).
4×10^5 THP1-Dual™ cells (NF-κB-SEAP and IRF-Lucia luciferase Reporter Monocytes, Invivogen) were incubated with test Compounds in a 5-fold titration steps from […] in permeabilized buffer (50 mM HEPES pH 7.0, 100 mM KCl, 3 mM MgCl2, 85 mM sucrose, 0.2% BSA, 1 mM ATP, 0.1 mM GTP, 0.1 mM TTP, 1 μg/ml digitonin) for 30 minutes on ice. Cells were then washed and incubated in a fresh RPMI media with 10% FBS at 37° C. with 5% CO2 for 24 h. Cell culture supernatants from each sample were collected and NFkB and IRF3 were evaluated as above. Table 3 provides the results for IRF3 induction (“A” means <1 μM; “B” means ≥1 μM and <50 μM; “C” means ≥50 μM).

T1 sequence (Q86WV6 whole entry R71H/G230A/H232R/R293Q): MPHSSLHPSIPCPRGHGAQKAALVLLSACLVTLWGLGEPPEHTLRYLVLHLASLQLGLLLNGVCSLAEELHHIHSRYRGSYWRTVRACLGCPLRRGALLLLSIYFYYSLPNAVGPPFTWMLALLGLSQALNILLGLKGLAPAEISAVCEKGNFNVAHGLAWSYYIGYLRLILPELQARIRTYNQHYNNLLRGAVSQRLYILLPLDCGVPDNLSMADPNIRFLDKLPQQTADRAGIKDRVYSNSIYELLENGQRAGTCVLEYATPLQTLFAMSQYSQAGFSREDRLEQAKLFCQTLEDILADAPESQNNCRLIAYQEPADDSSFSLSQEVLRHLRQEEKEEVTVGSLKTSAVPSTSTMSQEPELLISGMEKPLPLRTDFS

**Q.** `CCc1nc(C)oc1C(=O)Nc1nc2cc(C(N)=O)cc(OCCCO)c2n1C/C=C/Cn1c(NC(=O)c2cc(C)nn2CC)nc2cc(C(N)=O)cc(OC)c21` [compound 36] was tested. Which EC50 did it give?
**A.** < 1 µM

**Q.** With `CCc1nn(C)cc1C(=O)Nc1nc2cc(C(N)=O)cc(OCCCO)c2n1C/C=C/Cn1c(NC(=O)c2cc(C)nn2CC)nc2cc(C(N)=O)cc(OC)c21` [compound 39] as the compound, how does the EC50 read?
**A.** < 1 µM

**Q.** Which EC50 does the source give for `COc1cc(C(N)=O)cc2nc(NC(=O)c3cc4ncccc4o3)n(C/C=C/Cn3c(NC(=O)c4cc5ncccc5o4)nc4cc(C(N)=O)cc(OCCCO)c43)c12` [compound 14] here?
**A.** ≥ 50 µM

**Q.** `CCc1nc(C)sc1C(=O)Nc1nc2cc(C(N)=O)cnc2n1C/C=C/Cn1c(NC(=O)c2sc(C)nc2CC)nc2cc(C(N)=O)cc(OCCCO)c21` [Compound 144] was tested. Which EC50 did it give?
**A.** ≥ 50 µM

**Q.** For `CCn1nc(C)cc1C(=O)Nc1nc2cc(C(N)=O)cnc2n1C/C=C/Cn1c(NC(=O)c2cc(C)nn2CC)nc2cc(C(N)=O)cc(OCCCO)c21` [compound 94], which EC50 is on record?
**A.** < 1 µM

**Q.** How did the EC50 turn out when `COc1cc(C(N)=O)cc2nc(NC(=O)c3cnc(C(F)(F)F)s3)n(C/C=C/Cn3c(NC(=O)c4cnc(C(F)(F)F)s4)nc4cc(C(N)=O)cc(OCCCO)c43)c12` [compound 17] was run?
**A.** ≥ 50 µM

**Q.** Which EC50 does the source give for `CCc1nc(C)oc1C(=O)Nc1nc2cc(N)cc(OC)c2n1C/C=C/Cn1c(NC(=O)c2oc(C)nc2CC)nc2cc(C(N)=O)cc(OCCCO)c21` [Compound 135] here?
**A.** 1 to 50 µM

**Q.** `CCc1nc(C)oc1C(=O)Nc1nc2cc(C(N)=O)cc(O)c2n1C/C=C/Cn1c(NC(=O)c2oc(C)nc2CC)nc2cc(C(N)=O)cc(O)c21` [Compound 139] was tested. Which EC50 did it give?
**A.** ≥ 50 µM

**Q.** How did the EC50 turn out when `CCc1nc(C)oc1C(=O)Nc1nc2cc(CNC(C)=O)cc(OC)c2n1C/C=C/Cn1c(NC(=O)c2oc(C)nc2CC)nc2cc(C(N)=O)cc(OCCCO)c21` [Compound 130] was run?
**A.** 1 to 50 µM

**Q.** For `CCc1nc(C)sc1C(=O)/N=c1\sc2cc(C(N)=O)cnc2n1C/C=C/Cn1c(NC(=O)c2sc(C)nc2CC)nc2cc(C(N)=O)cc(OCCCO)c21` [Compound 145], which EC50 is on record?
**A.** ≥ 50 µM

**Q.** `CCc1nc(C)oc1C(=O)Nc1nc2cc(C(N)=O)cnc2n1C/C=C/Cn1c(NC(=O)c2oc(C)nc2CC)nc2cc(C(N)=O)cc(OCCCN)c21` [compound 96] was tested. Which EC50 did it give?
**A.** < 1 µM

**Q.** With `CCc1nc(C)sc1C(=O)Nc1nc2cc(C(N)=O)cc(OC)c2n1C/C=C/Cn1c(NC(=O)c2sc(C)nc2CC)nc2cc(C(N)=O)cc(OCCCO)c21` [compound 10] as the compound, how does the EC50 read?
**A.** < 1 µM

**Q.** For `CCc1nn(C)cc1C(=O)Nc1nc2cc(C(N)=O)cc(OCCCO)c2n1C/C=C/Cn1c(NC(=O)c2cc(C)nn2CC)nc2cc(C(N)=O)ccc21` [compound 53], which EC50 is on record?
**A.** < 1 µM

**Q.** Which EC50 does the source give for `CCn1nc(C)cc1C(=O)Nc1nc2cc(C(=O)OC)cnc2n1C/C=C/Cn1c(NC(=O)c2cc(C)nn2CC)nc2cc(C(N)=O)cc(OCCCO)c21` [Compound 123] here?
**A.** < 1 µM

**Q.** With `CCn1nc(C)cc1C(=O)Nc1nc2cc(CN(C)C)cnc2n1C/C=C/Cn1c(NC(=O)c2cc(C)nn2CC)nc2cc(C(N)=O)cc(OCCCO)c21` [Compound 125] as the compound, how does the EC50 read?
**A.** < 1 µM

**Q.** How did the EC50 turn out when `CCc1nc(C)oc1C(=O)/N=c1\sc2cc(C(N)=O)cnc2n1C/C=C/Cn1c(NC(=O)c2oc(C)nc2CC)nc2cc(C(N)=O)cc(OCCCC(=O)O)c21` [Compound 155] was run?
**A.** < 1 µM

target: T2, R232 hSTING variant (Homo sapiens, UniProt Q86WV6, H232R); test: IRF3 reporter induction in THP1-Dual KI-hSTING-R232 Cells; type: cell-based; settings: THP1-Dual KI-hSTING-R232 Cells (R232 Haplotype)
T2 construct: expressed in transfected cells; host or cells: THP1-Dual KI-hSTING-R232 cells, generated from THP1-Dual KO-STING cells
T2 sequence (Q86WV6 whole entry H232R): as the sequence (Q86WV6 whole entry R71H/G230A/H232R/R293Q) above, with H71R, A230G, Q293R counted along it
Method: (§2) THP1-Dual™ Human Monocytes cells with the homozygous HAQ allele, known to be a natural variant allele of STING occurring in 20% of the human population (Invivogen) have been engineered with two independent gene reporter systems: a secreted embryonic alkaline phosphatase (SEAP) reporter gene for NFkB activity, and secreted luciferase reporter for […] (IRF3) activity were used. 4×10^5 THP1-Dual™ cells were incubated with test Compounds in a 5-fold titration steps from 1 to 0.0128 μM in RPMI media with 10% FBS, for 24 hours at 37° C. with 5% CO2. Cell culture supernatants (20 μl) from each incubated sample was added to resuspended QUANTI-Blue™ Solution (Invivogen, 180 μl) in each well of a flat-bottom 96-well plate, then incubated for 2 h. NFkB levels were evaluated using a spectrophotometer at 620-655 nm.
as §1
(§3) NFkB and IRF3 reporter levels were also determined for THP1-Dual™ KI-hSTING-H232 Cells and THP1-Dual™ KI-hSTING-R232 Cells. THP1-Dual™ KI-hSTING-H232 Cells (R232H Haplotype) were generated from THP1-Dual™ KO-STING cells by knockin of the intronless coding sequence (from the ATG to TGA) of the R232H human STING variant (Invivogen). R232H has been identified as a natural variant allele of STING occurring in ˜14% of the human population. THP1-Dual™ KI-hSTING-R232 Cells (R232 Haplotype) were generated from THP1-Dual™ KO-STING cells by knockin of the intronless coding sequence (from the ATG to the TGA) of the R232 hSTING variant. Genomic studies indicate that this variant, which contains an arginine at position 232 (R232), is the most prevalent variant with an occurrence (homozygous allele) of ˜45-58% in the human population.
(§4) The EC50 value was determined from the dose response curve based on reference Compounds. Table 2a provides the results for IRF3 reporter induction THP1-Dual™ Human Monocytes cells and Table 2b provides the results for IRF3 reporter induction in THP1-Dual™ KI-hSTING-H232 Cells and THP1-Dual™ KI-hSTING-R232 Cells (“A” means <30 nM; “B” means ≥30 nM and <100 nM; “C” means ≥100 nM).

**Q.** `CCc1nc(C)oc1C(=O)Nc1nc2cc(C(N)=O)cc(OCCCO)c2n1C/C=C/Cn1/c(=N/C(=O)c2cc(C)nn2CC)sc2cc(C(N)=O)cc(OC)c21` [compound 69] was tested. Which EC50 did it give?
**A.** < 0.03 µM

**Q.** How did the EC50 turn out when `CCc1nc(C)oc1C(=O)/N=c1\sc2nc(C(N)=O)cnc2n1C/C=C/Cn1c(NC(=O)c2oc(C)nc2CC)nc2cc(C(N)=O)cc(OCCCO)c21` [compound 167] was run?
**A.** 0.03 to 0.1 µM

target: T3, R232H human STING variant (Homo sapiens, UniProt Q86WV6); test: IRF3 reporter induction in THP1-Dual KI-hSTING-H232 Cells; type: cell-based; settings: THP1-Dual KI-hSTING-H232 Cells (R232H Haplotype)
T3 construct: host or cells: THP1-Dual KI-hSTING-H232 cells, generated from THP1-Dual KO-STING cells
T3 sequence (Q86WV6 whole entry, stated change not applied): as the sequence (Q86WV6 whole entry R71H/G230A/H232R/R293Q) above, with H71R, A230G, R232H, Q293R counted along it
Method: as §2, §1, §3, §4

**Q.** Which EC50 does the source give for `CCc1nc(C)oc1C(=O)Nc1nc2cc(C(N)=O)cc(OCCCO)c2n1C/C=C/Cn1/c(=N/C(=O)c2cc(C)nn2CC)sc2cc(C(N)=O)cc(OC)c21` [compound 69] here?
**A.** < 0.03 µM

**Q.** For `CCc1nc(C)oc1C(=O)/N=c1\sc2nc(C(N)=O)cnc2n1C/C=C/Cn1c(NC(=O)c2oc(C)nc2CC)nc2cc(C(N)=O)cc(OCCCO)c21` [compound 167], which EC50 is on record?
**A.** 0.03 to 0.1 µM

target: T4, Human STING (HAQ allele) (Homo sapiens, UniProt Q86WV6, G230A/H232R/R293Q/R71H); test: IRF3 reporter induction in THP1-Dual Human Monocytes cells (homozygous HAQ STING allele); type: cell-based; settings: IRF3 reporter (secreted luciferase), 24 hours incubation
T4 construct: THP1-Dual™ Human Monocytes cells with the homozygous HAQ allele; host or cells: THP1-Dual human monocytes
T4 sequence (Q86WV6 whole entry R71H/G230A/H232R/R293Q): as the sequence (Q86WV6 whole entry R71H/G230A/H232R/R293Q) above
Method: as §2, §1, §4

**Q.** For `CCc1nc(C)oc1C(=O)Nc1nc2cc(C(N)=O)cc(OCCCO)c2n1C/C=C/Cn1/c(=N/C(=O)c2cc(C)nn2CC)sc2cc(C(N)=O)cc(OC)c21` [compound 69], which EC50 is on record?
**A.** ≥ 0.1 µM

**Q.** For `CCc1nc(C)oc1C(=O)/N=c1\sc2nc(C(N)=O)cnc2n1C/C=C/Cn1c(NC(=O)c2oc(C)nc2CC)nc2cc(C(N)=O)cc(OCCCO)c21` [compound 167], which EC50 is on record?
**A.** ≥ 0.1 µM

**Q.** How did the EC50 turn out when `CCc1nn(C)cc1C(=O)Nc1nc2cc(C(N)=O)cc(OCCCO)c2n1C/C=C/Cn1c(NC(=O)c2cc(C)nn2CC)nc2cc(C(N)=O)ccc21` [compound 53] was run?
**A.** ≥ 0.1 µM

Reference: patent US11155567B2, “Sting agonist compounds and methods of use” (Mersana Therapeutics, Inc., priority 2019, dated 2021)
